# Assay results published in patent US20260305610A1, “TRIAZOLE COMPOUND, AND PREPARATION METHOD THEREFOR, HERBICIDAL COMPOSITION AND USE THEREOF” (QINGDAO KINGAGROOT CHEMICAL COMPOUND CO., LTD., priority 2023, published 2026).
# Experiments:
# Type in all cases: in vivo
# Descurainia sophia = assay: Activity assay of compositions: post-emergence spray treatment of stems and leaves (F), fresh weight inhibition and combined effect (Gowing method); settings: 21 d
# Procedure: The required active ingredient B was purchased from a reagent company or a technical material manufacturer or synthesized by a conventional method. The technical materials were all dissolved with acetone solvents and diluted with aqueous solution of 0.1% Tween-80 emulsifier, which should be used immediately after dilution.
# Descurainia sophia weeds were cultivated by a pot culture method. […] Weed seeds with plump and uniform grains were selected, treated with 30% hydrogen peroxide for 10 min, and accelerated to germinate at 15-20° C. in a biochemical incubator (in darkness). The weed seeds that had just germinated were evenly placed on the surface of the soil and then covered with 0.5-1 cm soil according to the sizes of seeds.
# The culture was carried out in a controllable sunlight greenhouse at 20-30° C., in natural light, and with relative humidity of 57%-72%.
# Each treatment was repeated 4 times. Three pots with 20 weed seeds sowed per pot were treated each time.
# The agents were used once in total in the experiment. When at the stage of 1.5-2 leaves, the weeds were thinned out to maintain 10 weeds per pot. Thirty weeds were kept in each treatment, and then continued to be cultured until the 10-leaf stage for further treatment.
# The well-cultured test materials were evenly placed on a platform with an area of 0.5 m^2, and foliage spraying was carried out by the 3WP-2000-type walking spray tower at a dosage of 450 kg/ha and a spray pressure of 0.3 MPa. After all the solution was sprayed, the air valve was closed, and 30 seconds later, the door of the spray tower was opened, and the nutritional bowl was taken out. Next, the air valve was opened, and the spray tube was cleaned by spraying 50 ml of water. The test materials were transferred to and routinely cultured in a greenhouse after the treatment.
# A method for investigating absolute numbers was employed. Whole seedlings of survival weeds were cut off along the soil surface with a blade, and the fresh weight of the weeds was weighed using an analytical balance. For dead weeds, the fresh weight thereof was zero.
# The investigation was performed 21 days after the treatment for once in total.
# The theoretical fresh weight inhibition rate of a mixed combination of each treatment was calculated by the Gowing method (E0=X+Y−X*Y/100). Then compared with the measured inhibition rate (E), the type of the combined effect of the combination of the two on weeds was evaluated, which was a synergistic effect when E−E0>10%; an antagonistic effect when E−E0<−10%; an additional effect when −10%≤E−E0≤10%. An optimal ratio was determined according to factors such as the actual control effects, characteristics of herbicides, balance of the formulation, etc. In the formula, X represents the fresh weight inhibition rate of the active ingredient A in a dosage of P; Y represents the fresh weight inhibition rate of the active ingredient B in a dosage of Q. The statistical results are shown in Table 4.
# major crops = assay: Pre-emergence test experiment (crops); parameters: key: 9: completely dead; 8: growth control rate is greater than or equal to 90% and less than 100%; 7: growth control rate is greater than or equal to 80% and less than 90%; 6: growth control rate is greater than or equal to 70% and less than 80%; growth control rate is greater than or equal to 50% and less than 70%; 4: growth control rate is greater than or equal to 30% and less than 50%; growth control rate is greater than or equal to 20% and less than 30%; growth control rate is greater than or equal to 10% and less than 20%; growth control rate is less than 10%; 0: no effect
# [1] = test system: monocotyledonous and dicotyledonous weeds; assay: Pre-emergence test experiment (weeds); parameters: key: 9: completely dead; 8: growth control rate is greater than or equal to 90% and less than 100%; 7: growth control rate is greater than or equal to 80% and less than 90%; 6: growth control rate is greater than or equal to 70% and less than 80%; growth control rate is greater than or equal to 50% and less than 70%; 4: growth control rate is greater than or equal to 30% and less than 50%; growth control rate is greater than or equal to 20% and less than 30%; growth control rate is greater than or equal to 10% and less than 20%; growth control rate is less than 10%; 0: no effect
# Monochoria vaginalis = assay: Pre-emergence sealing experiment for water-seeding; parameters: key: 9: completely dead; 8: growth control rate is greater than or equal to 90% and less than 100%; 7: growth control rate is greater than or equal to 80% and less than 90%; 6: growth control rate is greater than or equal to 70% and less than 80%; growth control rate is greater than or equal to 50% and less than 70%; 4: growth control rate is greater than or equal to 30% and less than 50%; growth control rate is greater than or equal to 20% and less than 30%; growth control rate is greater than or equal to 10% and less than 20%; growth control rate is less than 10%; 0: no effect; settings: 15 g a.i./ha, 15 days, sulfonylurea-resistant strain
# Text: (§1) The activity level criteria for plant damage (i.e., growth control rate) are as follows: • Level 9: completely dead; • Level 8: growth control rate is greater than or equal to 90% and less than 100%; • Level 7: growth control rate is greater than or equal to 80% and less than 90%; • Level 6: growth control rate is greater than or equal to 70% and less than 80%; • Level 5: growth control rate is greater than or equal to 50% and less than 70%; • Level 4: growth control rate is greater than or equal to 30% and less than 50%; • Level 3: growth control rate is greater than or equal to 20% and less than 30%; • Level 2: growth control rate is greater than or equal to 10% and less than 20%; • Level 1: growth control rate is less than 10%; • Level 0: no effect.
# (§2) The seeds of Leptochloa chinensis, Digitaria sanguinalis, Monochoria vaginalis (sulfonylurea-resistant strain, collected from Hunan, China), Cyperus iria (sulfonylurea-resistant strain, collected from Jiangsu, China), Huaidao (rice cultivar), etc. were broadcasted on the surface of nutrition bowls filled with soil and fully covered by soil. The prepared nutrition bowls were then placed in a cultivation box, with water filled to a suitable height to keep the soil in the nutrition bowls moist. The test compounds of the present invention were individually dissolved with mixed solutions of acetone and Tween-80, then diluted into solution of a certain concentration using a certain amount of water and sprayed using a spray tower. The plants were placed on a greenhouse seedbed and cultured for 15 days, and the experimental results were then collected. The compounds were applied at 120, 60, 30 and 15 g a.i./ha in triplicate and the results were averaged. The effects were evaluated according to the above activity level criteria.
# Digitaria sanguinalis = assay: Pre-emergence sealing experiment for water-seeding; parameters: key: 9: completely dead; 8: growth control rate is greater than or equal to 90% and less than 100%; 7: growth control rate is greater than or equal to 80% and less than 90%; 6: growth control rate is greater than or equal to 70% and less than 80%; growth control rate is greater than or equal to 50% and less than 70%; 4: growth control rate is greater than or equal to 30% and less than 50%; growth control rate is greater than or equal to 20% and less than 30%; growth control rate is greater than or equal to 10% and less than 20%; growth control rate is less than 10%; 0: no effect; settings: 15 g a.i./ha, 15 days
# Text: as §1, §2
# Leptochloa chinensis = assay: Pre-emergence sealing experiment for water-seeding; parameters: key: 9: completely dead; 8: growth control rate is greater than or equal to 90% and less than 100%; 7: growth control rate is greater than or equal to 80% and less than 90%; 6: growth control rate is greater than or equal to 70% and less than 80%; growth control rate is greater than or equal to 50% and less than 70%; 4: growth control rate is greater than or equal to 30% and less than 50%; growth control rate is greater than or equal to 20% and less than 30%; growth control rate is greater than or equal to 10% and less than 20%; growth control rate is less than 10%; 0: no effect; settings: 15 g a.i./ha, 15 days
# Text: as §1, §2
# Cyperus iria = assay: Pre-emergence sealing experiment for water-seeding; parameters: key: 9: completely dead; 8: growth control rate is greater than or equal to 90% and less than 100%; 7: growth control rate is greater than or equal to 80% and less than 90%; 6: growth control rate is greater than or equal to 70% and less than 80%; growth control rate is greater than or equal to 50% and less than 70%; 4: growth control rate is greater than or equal to 30% and less than 50%; growth control rate is greater than or equal to 20% and less than 30%; growth control rate is greater than or equal to 10% and less than 20%; growth control rate is less than 10%; 0: no effect; settings: 15 g a.i./ha, 15 days, sulfonylurea-resistant strain
# Text: as §1, §2
compound,measurement,setting,value
COC(=O)c1nc(-c2ccc(Cl)c(OC)c2F)cc(N)c1Cl [Halauxifen-methyl],Control effect of B applied alone in a corresponding dose (%),Descurainia sophia; B 3 g a.i./ha,42.0%
same,Control effect of B applied alone in a corresponding dose (%),Descurainia sophia; B 6 g a.i./ha,67.4%
Cc1nn(C)cc1C(=O)Oc1c(C(=O)c2ccc(C(F)(F)F)cc2S(C)(=O)=O)c(C)nn1C [Bipyrazone],Control effect of B applied alone in a corresponding dose (%),Descurainia sophia; B 15 g a.i./ha,55.4%
same,Control effect of B applied alone in a corresponding dose (%),Descurainia sophia; B 30 g a.i./ha,78.9%
c1cc[n+]2c(c1)-c1cccc[n+]1CC2 [Diquat dibromide monohydrate],Control effect of B applied alone in a corresponding dose (%),Descurainia sophia; B 60 g a.i./ha,42.2%
same,Control effect of B applied alone in a corresponding dose (%),Descurainia sophia; B 120 g a.i./ha,66.6%
C[n+]1ccc(-c2cc[n+](C)cc2)cc1 [Paraquat dichloride],Control effect of B applied alone in a corresponding dose (%),Descurainia sophia; B 30 g a.i./ha,46.9%
same,Control effect of B applied alone in a corresponding dose (%),Descurainia sophia; B 60 g a.i./ha,68.0%
COCc1ccc(-n2cnc(C(F)(F)F)n2)nc1Oc1cccc(C(F)(F)F)c1 [Compound 23],Pre-emergence plant damage level (growth control rate) on Corn,major crops; 30 g a.i./ha,0
same,Pre-emergence plant damage level (growth control rate) on Cotton,major crops; 30 g a.i./ha,0
same,Pre-emergence plant damage level (growth control rate) on Soybean,major crops; 30 g a.i./ha,0
same,Pre-emergence activity level (growth control rate) on Amaranthus retroflexus,[1]; 30 g a.i./ha,9
same,Pre-emergence activity level (growth control rate) on Descurainia sophia,[1]; 30 g a.i./ha,9
same,Pre-emergence activity level (growth control rate) on Digitaria sanguinalis,[1]; 30 g a.i./ha,9
same,Pre-emergence activity level (growth control rate) on Setaria viridis,[1]; 30 g a.i./ha,8 (growth control rate is greater than or equal to 90% and less than 100%)
same,Pre-emergence activity level (growth control rate) on Solanum nigrum,[1]; 30 g a.i./ha,9
same,Pre-emergence activity level (growth control rate) on Veronica,[1]; 30 g a.i./ha,9
same,"activity level (growth control rate, fresh weight), Monochoria vaginalis",Monochoria vaginalis,9
same,"activity level (growth control rate, fresh weight), Digitaria sanguinalis",Digitaria sanguinalis,9
same,"activity level (growth control rate, fresh weight), Leptochloa chinensis",Leptochloa chinensis,9
same,"activity level (growth control rate, fresh weight), Cyperus iria",Cyperus iria,9
Cc1ccc(-n2cnc(C(F)(F)F)n2)nc1Oc1cccc(C(F)(F)F)c1 [Compound 8],Pre-emergence plant damage level (growth control rate) on Corn,major crops; 15 g a.i./ha,0
same,Pre-emergence plant damage level (growth control rate) on Cotton,major crops; 15 g a.i./ha,0
same,Pre-emergence plant damage level (growth control rate) on Soybean,major crops; 15 g a.i./ha,0
same,Pre-emergence activity level (growth control rate) on Amaranthus retroflexus,[1]; 15 g a.i./ha,9
same,Pre-emergence activity level (growth control rate) on Descurainia sophia,[1]; 15 g a.i./ha,9
same,Pre-emergence activity level (growth control rate) on Digitaria sanguinalis,[1]; 15 g a.i./ha,9
same,Pre-emergence activity level (growth control rate) on Setaria viridis,[1]; 15 g a.i./ha,9
same,Pre-emergence activity level (growth control rate) on Solanum nigrum,[1]; 15 g a.i./ha,9
same,Pre-emergence activity level (growth control rate) on Veronica,[1]; 15 g a.i./ha,9
same,"activity level (growth control rate, fresh weight), Monochoria vaginalis",Monochoria vaginalis,9
same,"activity level (growth control rate, fresh weight), Digitaria sanguinalis",Digitaria sanguinalis,9
same,"activity level (growth control rate, fresh weight), Leptochloa chinensis",Leptochloa chinensis,9
same,"activity level (growth control rate, fresh weight), Cyperus iria",Cyperus iria,9
CP(=O)(O)CCC(N)C(=O)O (centres unmarked) [Glufosinate-ammonium],Control effect of B applied alone in a corresponding dose (%),Descurainia sophia; B 60 g a.i./ha,50.7%
same,Control effect of B applied alone in a corresponding dose (%),Descurainia sophia; B 120 g a.i./ha,71.5%
COc1c(Cl)ccc(Cl)c1C(=O)O [Dicamba],Control effect of B applied alone in a corresponding dose (%),Descurainia sophia; B 37.5 g a.i./ha,39.6%
same,Control effect of B applied alone in a corresponding dose (%),Descurainia sophia; B 75 g a.i./ha,50.8%
CCOC(=O)c1nc(-c2ccc(C(F)(F)F)c(OC)c2F)nc(N)c1OC,Control effect of B applied alone in a corresponding dose (%),Descurainia sophia; B 6 g a.i./ha,26.8%
same,Control effect of B applied alone in a corresponding dose (%),Descurainia sophia; B 12 g a.i./ha,37.7%
O=C(O)CNCP(=O)(O)O [Glyphosate],Control effect of B applied alone in a corresponding dose (%),Descurainia sophia; B 75 g a.i./ha,56.6%
same,Control effect of B applied alone in a corresponding dose (%),Descurainia sophia; B 150 g a.i./ha,75.8%
"C[N+](C)(C)CCO.O=C([O-])COc1ccc(Cl)cc1Cl [2,4-D-Choline]",Control effect of B applied alone in a corresponding dose (%),Descurainia sophia; B 150 g a.i./ha,44.7%
same,Control effect of B applied alone in a corresponding dose (%),Descurainia sophia; B 300 g a.i./ha,60.0%
